Source: US11208403B2, “Pyridone derivatives having tetrahydropyranylmethyl groups” (DAIICHI SANKYO COMPANY, LIMITED, priority 2014, dated 2021)
Counter-ions that a name gives are not always drawn. Like-named read-outs stand apart in the source and are kept apart here. Each block holds one compound with its values, some of them ahead of it.

Experiments:
[1] = tested on: HCC827 lung cancer cells; assay: In vivo effect of combined use with erlotinib-2, erlotinib-resistant HCC827 tumors (Test Example 8); design: species or system mouse
[2] = tested on: HCC827 lung cancer cells; assay: In vivo effect of combined use with erlotinib, HCC827 subcutaneous tumors (Test Example 6); settings: HCC827 in nude mice, 50 mg/kg bid in combination with 25 mg/kg erlotinib qd
[3] = tested on: NIH-3T3-Axl #7; assay: Antitumor test, NIH-3T3-Axl #7 tumors in NOG mice (Test Example 5); format: in vivo, mouse; settings: NIH-3T3-Axl #7 in female NOG mice, 5 continuous doses
Text: (Test Example 5: Antitumor Test)
NIH-3T3-Axl #7 (cells prepared by the transfection of NIH3T3 cells with pLXSN retrovirus having an insert of full-length Axl cDNA) was block-transplanted into female NOG mice.

[4] = target: T1, human MER (intracellular domain, amino acids 528-999, GST fusion) (Homo sapiens (Human), UniProt Q12866); settings: read-out: Mer kinase IC50; cell-free, ATP concentration of 1 mM
[5] = Ophthalmic histopathological examination after long-term administration (Test Example 4); format: in vivo, mouse; settings: female NOG mice (n=8), 100 or 200 mg/kg
Text: Preparation of dosing Solution:
4. Administration Method:
Four continuous doses, 1 drug holiday, 5 continuous doses, 2 drug holidays, 5 continuous doses, 2 drug holidays, 5 continuous doses, 2 drug holidays, and 4 continuous doses.
5. Pathological Examination
On the day following the termination date of the administration period, the mice were euthanized by blood letting under isoflurane anesthesia. Then, their eyeballs were collected, fixed in Davidson's solutions, then embedded in paraffin, and stained with hematoxylin eosin to prepare preparations, which were then histopathologically examined.

[6] = target: T1, human MER (intracellular domain, amino acids 528-999, GST fusion); assay: biochemical

T1 sequence (Q12866 528-999): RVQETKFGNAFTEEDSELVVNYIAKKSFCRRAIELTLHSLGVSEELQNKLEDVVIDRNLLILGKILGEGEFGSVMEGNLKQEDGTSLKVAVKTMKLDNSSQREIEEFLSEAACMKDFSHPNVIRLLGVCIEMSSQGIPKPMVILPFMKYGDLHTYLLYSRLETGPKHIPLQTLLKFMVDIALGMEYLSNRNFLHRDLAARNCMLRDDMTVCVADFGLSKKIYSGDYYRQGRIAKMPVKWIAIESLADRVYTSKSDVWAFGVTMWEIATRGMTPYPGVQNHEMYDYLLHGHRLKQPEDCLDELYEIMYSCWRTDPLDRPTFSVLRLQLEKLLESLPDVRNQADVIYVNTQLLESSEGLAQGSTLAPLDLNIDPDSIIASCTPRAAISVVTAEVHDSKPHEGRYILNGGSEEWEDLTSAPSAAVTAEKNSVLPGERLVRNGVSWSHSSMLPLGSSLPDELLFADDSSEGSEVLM

Structure (SMILES): COc1cc(-c2cnc(N)c(-c3ccc(NC(=O)c4cn(CC5CCOCC5)cc(-c5ccc(C)cn5)c4=O)cc3F)c2)ccc1OC[C@H]1COCCO1 [Compound B sulfate hydrate]
growth inhibition of erlotinib-resistant tumor ([1]; group 2: 50 mg/kg bid + 25 mg/kg erlotinib qd): distinct growth inhibitory effect of erlotinib was confirmed
estimated tumor volume of erlotinib-resistant tumor ([1]; group 2: 50 mg/kg bid + 25 mg/kg erlotinib qd, 116 to 140 days after transplantation): maintained even at 140 days after transplantation
growth inhibition of erlotinib-resistant tumor ([1]; group 3: 25 mg/kg bid + 25 mg/kg erlotinib qd): distinct growth inhibitory effect of erlotinib was confirmed
body weight change [2]: No significant weight loss
tumor size relative to start of administration (estimated tumor volume) [2]: did not reach that at the start of administration even at Day 107

Structure (SMILES): COc1ccc(-c2cnc(N)c(-c3ccc(NC(=O)c4cn(CC(F)(F)F)cc(-c5ccc(F)cc5)c4=O)cc3)c2)cc1OC [Compound A, reference compound]
antitumor effect ([3]; 4.2 mg/kg oral bid): distinct tumor regression effect
antitumor effect ([3]; 25 mg/kg oral bid): distinct tumor regression effect

Structure (SMILES): COc1cc(-c2cnc(N)c(-c3ccc(NC(=O)c4cn(CC5CCOCC5)cc(-c5ccc(C)s5)c4=O)nn3)c2)ccc1OC[C@H]1COCCO1 [Example 106]
IC50 [4]: > 4 µM

Structure (SMILES): Cc1ccc(-c2cn(CC3CCOCC3)cc(C(=O)Nc3ccc(-c4cc(-c5cc(C)nc(C)c5)cnc4N)nc3)c2=O)cc1 [Example 89]
IC50 [4]: > 4 µM

Structure (SMILES): COc1ccc(-c2cnc(N)c(-c3ccc(NC(=O)c4cn(CC5CCOCC5)cc(-c5ccc(C)cn5)c4=O)nn3)c2)cc1OC [Example 103]
IC50 [4]: > 4 µM

Structure (SMILES): COc1cc(-c2cnc(N)c(-c3ccc(NC(=O)c4cn(CC5CCOCC5)cc(-c5ccc(C)cn5)c4=O)nn3)c2)ccc1OC[C@H]1COCCO1 [Example 105]
IC50 [4]: > 4 µM

Structure (SMILES): Cc1ccc(-c2cn(CC3CCOCC3)cc(C(=O)Nc3ccc(-c4cc(-c5cnn(CC6CCOCC6)c5)cnc4N)nn3)c2=O)cc1 [Example 102]
IC50 [4]: > 4 µM

Structure (SMILES): COc1ccc(-c2cnc(N)c(-c3ccc(NC(=O)c4cn(CC5CCOCC5)cc(-c5ccc(C)cc5)c4=O)cc3)c2)cc1OC [Example 2]
IC50 [6]: 0.102 µM

Structure (SMILES): COc1cc(-c2cnc(N)c(-c3ccc(NC(=O)c4cn(CC5CCOCC5)cc(-c5ccc(C)cc5)c4=O)cn3)c2)c(OC)nn1 [Example 96]
IC50 [4]: > 4 µM

Structure (SMILES): COc1ccc(-c2cnc(N)c(-c3ccc(NC(=O)c4cn(CC5CCOCC5)cc(-c5ccc(OC(F)(F)F)cc5)c4=O)cc3)c2)cc1OC [Example 7]
IC50 [4]: > 4 µM

Continued, in another order:

IC50 [4]: > 4 µM
Structure (SMILES): Cc1ccc(-c2cn(CC3CCOCC3)cc(C(=O)Nc3ccc(-c4cc(-c5cnn(C6CCOCC6)c5)cnc4N)nn3)c2=O)cc1 [Example 109]

IC50 [4]: > 4 µM
Structure (SMILES): COc1cc(-c2cnc(N)c(-c3ccc(NC(=O)c4cn(CC5CCOCC5)cc(-c5ccc(C)cc5)c4=O)nn3)c2)ccc1OCCN1CCOCC1 [Example 110, N-[6-(2-Amino-5-{3-methoxy-4-[2-(morpholin-4-yl)ethoxy]phenyl}pyridin-3-yl)pyridazin-3-yl]-5-(4-methylphenyl)-4-oxo-1-(tetrahydro-2H-pyran-4-ylmethyl)-1,4-dihydropyridine-3-carboxamide]

histological change in the retina [5]: No histological change in the retinal
Structure (SMILES): COc1cc(-c2cnc(N)c(-c3ccc(NC(=O)c4cn(CC5(C#N)CCOCC5)cc(-c5ccc(F)cc5)c4=O)cc3)c2)ccc1OC[C@H]1COCCO1.CS(=O)(=O)O [Example 129]

IC50 [4]: > 4 µM
Structure (SMILES): Cc1ccc(-c2cn(CC3CCOCC3)cc(C(=O)Nc3ccc(-c4cc(-c5cnn(C[C@H]6COCCO6)c5)cnc4N)nn3)c2=O)cc1 [Example 108]

IC50 [6]: > 4 µM
Structure (SMILES): COc1ccc(-c2cnc(N)c(-c3cnc(NC(=O)c4cn(CC5CCOCC5)cc(-c5ccc(C)cc5)c4=O)cn3)c2)cc1OC [Example 112, N-{5-[2-Amino-5-(3,4-dimethoxyphenyl)pyridin-3-yl]pyrazin-2-yl}-5-(4-methylphenyl)-4-oxo-1-(tetrahydro-2H-pyran-4-ylmethyl)-1,4-dihydropyridine-3-carboxamide]

histological change in the retina [5]: No histological change in the retinal
Structure (SMILES): COc1cc(-c2cnc(N)c(-c3ccc(NC(=O)c4cn(CC5CCOCC5)cc(-c5ccc(C)cc5)c4=O)cc3)c2)ccc1OC[C@H]1COCCO1.CS(=O)(=O)O [Example 128]
antitumor effect ([3]; 3.1 mg/kg oral bid): almost completely inhibited tumor growth
antitumor effect ([3]; 12.5 mg/kg oral bid): distinct tumor regression effect
antitumor effect ([3]; 50 mg/kg oral bid): distinct tumor regression effect

histological change in the retina [5]: No histological change in the retinal
Structure (SMILES): COc1cc(-c2cnc(N)c(-c3ccc(NC(=O)c4cn(CC5CCOCC5)cc(-c5ccc(C)cn5)c4=O)cc3F)c2)ccc1OC[C@H]1COCCO1 [Example 124]
